Read-outs that look alike come from different tables or passages of the source.

One data set in a line: in vitro. The class given is cell-based. The settings on record: cells exposed to zidovudine; 22 assays; 90.9% for cells not exposed; read-out: cell viability. An excerpt:
(§1) A total of 22 clinical HIV-1 isolates were studied, including 8 isolates from four seropositive asymptomatic individuals, 6 isolates from three patients with the AIDS-related complex, and 8 isolates from four patients with AIDS (two pairs of zidovudine-resistant and zidovudine-susceptible reference isolates were also included in this group). Erice et al., Antimicrob. Ag. Chemother., 37, 835 (1993). Fifteen isolates were from untreated individuals, and seven isolates were obtained after 24 to 104 weeks of treatment with zidovudine, alone or alternating with zalcitabine. […] The mean αCD4-PAP IC50 s in this group were 11×10^-3 nM (range, 2.5×10^-3 to 25×10^-3 nM) for isolates from zidovudine-untreated individuals and 9×10^-3 nM for the isolate obtained after 48 weeks of zidovudine therapy. […] The mean αCD4-PAP values in this group were 137×10^-3 nM (range, 39×10^-3 to 212×10^-3 nM) for isolates from untreated individuals and 19×10^-3 nM (range, 2×10^-3 to 42×10^-3 nM) for isolates from treated patients. […] The mean αCD4-PAP values were 43×10^-3 nM for the 17 isolates susceptible to zidovudine and 19×10^-3 nM for the 5 isolates that were resistant to zidovudine. All of the HIV-1 isolates studied had IC50 s greater than 0.5 nM for unconjugated PAP, the αCD19-PAP immunoconjugate, and monoclonal antibody αCD4. […]

In data set [1] the test system is clinical HIV-1 strains (AT-101, AT-328, AT-332). The class given is in vivo, Hu-PBL-SCID mice.
Excerpt: Hu-PBL-SCID mice were generated by reconstituting SCID mice by intraperitoneal injection of 10×10^6 peripheral blood mononuclear cells from a single EBV-seronegative volunteer donor. Two weeks after inoculation of cells, mice were challenged by intraperitoneal injection of 1.47.-7×10^4 median tissue culture infectious doses (TCID50) of cell free virus. Three different clinical HIV-1 strains (AT-101, AT-328, AT-332) were used. […] SCID mice were infected with HIV-1 isolates in a Biosafety Level 3 containment facility and all manipulations were performed in a biosafety cabinet. Non-toxic doses of anti-CD4-PAP (20% -50% of LD10) were administered intraperitoneally by injecting half of the total dose as a bolus and delivering the remainder i.p. over 2 weeks using Alzet micro-osmotic pumps. […] Two weeks after infection with HIV-1, mice were electively killed and fresh peritoneal lavage cells as well as spleen cells were isolated, cocultured with phytohemagglutinin(PHA)-stimulated human peripheral blood mononuclear cells from an HIV-1 antibody negative donor, and culture supernatants were tested every 3-4 days for a maximum of 28 days for the presence of HIV-1 antigen with a commercially available enzyme immunoassay (Abbott Laboratories, North Chicago, Ill.) that detects primarily the core p24 antigen of HIV-1, as previously described by Goudsmit et al. in J. Infectious Diseases, 155, 558 (1987). In addition to this culture method, we also isolated the DNA from the peritoneal lavage cells as well as splenocytes for detection of HIV-1 DNA by PCR amplification of a 115 b.p. sequence in the gag region of the HIV-1 genome using two 29-base oligonucleotide primers, SK38 and SK39, that flank the region to be amplified. […] DNA samples were also examined for the presence of human DNA by PCR amplification of a 110-bp fragment from the first exon of the human β-globin gene using two 20-base oligonucleotide primers, PCO3 and PCO4, that flank the region to be amplified, as previously described in detail by Chelstrom et al. Blood, 84, 20 (1994). […]
The test system of the next data set is clinical HIV-1 isolates. Description: In vitro susceptibility of clinical HIV-1 isolates to zidovudine (IC50). The class given is cell-based.
Excerpt: as §1, with “αCD4. In 18 αCD4-PAP experiments, cell viability ranged from 97.5% (for cells not exposed to the immunoconjugate)to 87.2% (for cells exposed to 5 nM αCD4-PAP). Cell viabilities in 22 zidovudine susceptible assays ranged from 90.9% (cells not exposed to zidovudine) to 90.75% (cells exposed to […] zidovudine).” for “αCD4.”
The in vitro susceptibility of clinical HIV-1 isolates to the PAP, PAP mutants, and anti-CD4 PAP immunoconjugates will be measured and compared using an RT inhibition assay, as described by Schwartz et al., cited supra. In brief, 5×10^6 PHA-stimulated seronegative donor peripheral blood mononuclear cells will be infected with HIV-1 by incubation in 1 mL of a stock virus preparation for 3 h at 37° C./5% CO2. After infection, cells will be transferred to 96-well tissue culture plates (40 μL/well in triplicate wells) containing different concentrations of PAP or αCD4 PAP diluted in RPMI 1640 supplemented with 20% fetal calf serum, 5% interleukin 2 (Cellular Products), 160 U/mL penicillin, and 160 μg/mL streptomycin. αCD4 PAP treatment will continue for 5 days to mimic the FDA-approved clinical protocol of the ongoing phase II PAP immunoconjugate trials for treatment of B-lineage lymphoid malignancies (BB-IND #3864). At the end of the incubation period, culture supernatants will be removed and assayed for RT activity using the method of Schwartz and colleagues. Schwartz et al., cited supra. IC50 values (concentration of drug needed to reduce RT activity by 50%) will be calculated from the RT activities of untreated versus treated samples using the SAS Regression Analysis Program (SAS Institute, Cary, N.C.). ZDV resistance will be defined as an ZDV-IC50value of greater than 1 μM. Standard statistical methods will be used including Student's t-tests to compare the αCD4 PAP sensitivity of ZDV-resistant and ZDV-sensitive HIV-1 isolates. All computations will be performed using an updated statistics program for the Macintosh (Statworks Statistics Program, Cricket Software, Philadelphia, Pa.).

Where [2] appears, read: ZDV in the water at 1 mg/mL, of the remaining 7 of 10 mice.

For orientation: viability means a per cent measure of how many cells are alive, often set against a control. With `Cc1cn([C@H]2C[C@H](N=[N+]=[N-])[C@@H](CO)O2)c(=O)[nH]c1=O` [zidovudine, 3'-azido-3'-deoxythymidine], the viability in “in vitro” worked out at 90.8%. In addition, the HIV-1 negative mice in data set [1] (ZDV in the water at 1 mg/mL (average 200 mg/kg/day), two weeks after infection, culture and PCR) is 3 of 10. Further, the “mice culture-negative but PCR-positive” value in data set [1] (setting [2]) was found to be 3. In addition, the “mice culture-positive and PCR positive” value in data set [1] (setting [2]) is reported as 4. Besides, the IC50 in the data set on clinical HIV-1 isolates (Human immunodeficiency virus 1, one resistant isolate, IC50 could not be calculated) is over 4000 nM; in the data set on clinical HIV-1 isolates (Human immunodeficiency virus 1, read-out: mean IC50, overall, 5 isolates resistant to zidovudine) it was 3720 nM; in the data set with clinical HIV-1 isolates (Human immunodeficiency virus 1, read-out: mean IC50, overall, 17 isolates susceptible to zidovudine), 117 nM; with clinical HIV-1 isolates (Human immunodeficiency virus 1, read-out: mean zidovudine IC50, AIDS-related complex, four zidovudine susceptible isolates), 106 nM; in the data set with clinical HIV-1 isolates (Human immunodeficiency virus 1, read-out: mean zidovudine IC50, isolates from seropositive asymptomatic, zidovudine-untreated patients), 150 nM; in the data set on clinical HIV-1 isolates (Human immunodeficiency virus 1, read-out: mean zidovudine IC50, patients with AIDS, five zidovudine susceptible strains) it was 105 nM. Further, the IC50 is 2500 nM with clinical HIV-1 isolates (Human immunodeficiency virus 1, read-out: mean zidovudine IC50, strains from zidovudine-treated patients (7 isolates, 24 to 104 weeks of treatment)); 126 nM with clinical HIV-1 isolates (Human immunodeficiency virus 1, read-out: mean zidovudine IC50, strains from zidovudine-untreated individuals (15 isolates)); 14 nM with clinical HIV-1 isolates (Human immunodeficiency virus 1, read-out: zidovudine IC50, one isolate from a seropositive asymptomatic individual after 48 weeks of zidovudine therapy); 24 to 150 nM in the data set with clinical HIV-1 isolates (Human immunodeficiency virus 1, read-out: zidovudine IC50 range, AIDS-related complex, four zidovudine susceptible isolates); 1 to 607 nM in the data set on clinical HIV-1 isolates (Human immunodeficiency virus 1, read-out: zidovudine IC50 range, isolates from seropositive asymptomatic, zidovudine-untreated patients); 44 to 166 nM with clinical HIV-1 isolates (Human immunodeficiency virus 1, read-out: zidovudine IC50 range, patients with AIDS, five zidovudine susceptible strains). Moreover, the IC50 in the data set with clinical HIV-1 isolates (Human immunodeficiency virus 1, read-out: zidovudine IC50 range, strains from zidovudine-treated patients (7 isolates)) lay in the range of 14 to 6500 nM; in the data set with clinical HIV-1 isolates (Human immunodeficiency virus 1, read-out: zidovudine IC50 range, strains from zidovudine-untreated individuals (15 isolates)), 1 to 607 nM; in the data set with clinical HIV-1 isolates (Human immunodeficiency virus 1, read-out: zidovudine IC50s, AIDS-related complex, two resistant isolates obtained after 52 weeks of therapy), 1710 to 2140 nM. Besides, the susceptibility to zidovudine entry with clinical HIV-1 isolates (patients with AIDS, three isolates after 24 to 104 weeks of zidovudine, alone or alternating with zalcitabine) is “highly resistant to zidovudine”.
